Values of other authors in patent EP0972007B1, “DETERGENT COMPOSITIONS” (UNILEVER PLC, priority 1997, dated 1998).

Conditions: for Water Solubility (g/100g): grams of solid to form a saturated solution in 100 grams of water at 20°C

| Water Solubility (g/100g) | solubility in water (at 20°C) | Compound |
| --- | --- | --- |
| 15 |  | O=P(O)(O)OP(=O)(O)OP(=O)(O)O [Sodium tripolyphosphate anhydrous] |
| >100 | exceeding 100 gms per 100ml water | NC(N)=O [Urea] |

| Compound | Water Solubility (g/100g) | solubility in water (at 20°C) |
| --- | --- | --- |
| O=BO[O-].[Na+] [Sodium perborate anhydrous] | 3.7 |  |
